Test results as given in patent EP4782445A1, “CDK KINASE INHIBITOR AND USE THEREOF” (Abbisko Therapeutics Co., Ltd., priority 2023, dated 2025).

Assays:
[1] = target: T1, CDK2/cyclin E1 (Homo sapiens, UniProt P24941); experiment: In vitro biochemical kinase activity assay for CDK2/cyclin E1 (HTRF); conditions: 1 µM ATP
T1 construct: purchased Carna
Protocol: I. In Vitro Biochemical Kinase Activity Assay for CDK2/Cyclin E1
The inhibitory effects of the compounds of the present invention on CDK2/cyclin E1 kinase activity were determined using a homogeneous time-resolved fluorescence (HTRF) assay. The experimental process was as follows: • 1. The kinase reaction was carried out in a 384-well plate. 15 nM CDK2/cyclin E1 kinase (Carna), 1 µM ATP, and 1 µM biotin-labeled substrate protein ATF2-biotin (Cisbio) were incubated at room temperature for 90 min in a buffer system composed of 10 mM MgCl2, 1 mM MnCl2, 1 mM DTT, and basal kinase buffer (Cisbio). • 2. The detection solution (Cisbio, containing reagents that specifically recognize phosphorylated ATF2 and ATF2-biotin proteins, respectively) was added. The plate was then sealed with a film (to protect from light and volatilization) and incubated at 25°C for 60 min. • 3. The plate was transferred to an Envision plate reader to detect fluorescence resonance energy transfer (FRET) signals. (The 665/615 ratio was calculated by reading the emission at 665 nm and 615 nM, respectively.) • 4. The IC50 values were determined by analyzing the inhibition at varying compound concentrations using Model 205 in the XLfit software.

[2] = target: T2, CDK4/cyclin D3 (Homo sapiens, UniProt P11802); experiment: In vitro biochemical kinase activity assay for CDK4/cyclin D3 (HTRF)
T2 construct: purchased Carna
Procedure, shortened: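 HTRF kinase reaction: 4.9 nM CDK4/cyclin D3, 1 mM (or 80 µM) ATP and 0.3 µM Rb-biotin substrate, 90 min at 30°C in buffer with 50 mM MgCl2 and 1 mM DTT.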

[3] = target: T3, CDK6/cyclin D3 (Homo sapiens, UniProt Q00534); experiment: In vitro biochemical kinase activity assay for CDK6/cyclin D3 (HTRF)
T3 construct: purchased Carna
Procedure, shortened: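 HTRF assay: 0.02 nM CDK6/cyclin D3 incubated with 1 mM (or 100 µM) ATP and 0.3 µM Rb-biotin substrate at 30°C for 60 min in kinase buffer with 5 mM MgCl2 and 1 mM DTT.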

[4] = unmarked data: 80 µM ATP in Step 1
[5] = unmarked data: 100 µM ATP in Step 1
[6] = data marked with *: 1 mM ATP in Step 1

T2 sequence (P11802 whole entry): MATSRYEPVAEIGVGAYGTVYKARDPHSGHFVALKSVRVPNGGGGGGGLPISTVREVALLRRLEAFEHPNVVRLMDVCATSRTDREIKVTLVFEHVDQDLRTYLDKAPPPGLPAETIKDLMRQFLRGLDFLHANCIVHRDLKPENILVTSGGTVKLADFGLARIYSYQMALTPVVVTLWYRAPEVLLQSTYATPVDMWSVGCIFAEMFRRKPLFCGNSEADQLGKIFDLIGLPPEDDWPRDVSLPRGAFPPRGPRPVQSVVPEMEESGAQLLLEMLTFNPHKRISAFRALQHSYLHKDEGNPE
T2 sequence (P30281 whole entry partner): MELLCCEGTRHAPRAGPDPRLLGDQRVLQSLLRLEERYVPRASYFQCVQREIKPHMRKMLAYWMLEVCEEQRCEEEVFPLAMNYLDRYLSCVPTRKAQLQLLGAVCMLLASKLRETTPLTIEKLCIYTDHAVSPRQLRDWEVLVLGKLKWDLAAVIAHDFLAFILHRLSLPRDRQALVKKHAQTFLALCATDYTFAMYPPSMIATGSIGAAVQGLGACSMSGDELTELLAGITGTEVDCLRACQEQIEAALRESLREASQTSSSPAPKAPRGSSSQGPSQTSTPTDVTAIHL
T3 sequence (Q00534 whole entry): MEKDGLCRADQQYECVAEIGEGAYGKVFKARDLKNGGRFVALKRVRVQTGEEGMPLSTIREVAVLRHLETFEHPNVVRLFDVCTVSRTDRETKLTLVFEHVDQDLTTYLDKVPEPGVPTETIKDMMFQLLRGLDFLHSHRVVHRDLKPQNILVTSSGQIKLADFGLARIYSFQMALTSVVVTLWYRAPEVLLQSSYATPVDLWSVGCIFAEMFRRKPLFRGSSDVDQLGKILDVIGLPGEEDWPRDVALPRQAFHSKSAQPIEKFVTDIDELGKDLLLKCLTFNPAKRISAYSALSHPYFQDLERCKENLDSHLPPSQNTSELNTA
T3 sequence (P30281 whole entry partner): as the sequence (P30281 whole entry partner) above

Compound	IC50 [1]	IC50 [2, 4]	IC50 [3, 5]	IC50 [2, 6]	IC50 [3, 6]
CC(C)c1c(C#Cc2nc(N[C@@H]3CCOC[C@H]3O)ncc2Cl)cnn1C [Example 56, (3 S,4R)-4-((5-chloro-4-((5-isopropyl-1-methyl-1H-pyrazol-4-yl)ethynyl)pyrimidin-2-yl)amino)tetrahydro-2H-pyran-3-ol]	1370 nM	3.07 nM	49 nM		
CNCc1ncc(C#Cc2nc(N[C@@H]3CCOC[C@H]3O)ncc2Cl)n1C(C)C [Example 35, (3 S,4R)-4-((5-chloro-4-((1-isopropyl-2-((methylamino)methyl)-1H-imidazol-5-yl)ethynyl)pyrimidin-2-yl)amino)tetrahydro-2H-pyran-3-ol]	539 nM	19 nM	131 nM		
CCN1CC2(C1)CN(c1ccc(Nc3ncc(Cl)c(C#Cc4cnn(C)c4C(C)C)n3)nc1)C2 [Example 62, 5-chloro-N-(5-(6-ethyl-2,6-diazaspiro[3.3]heptan-2-yl)pyridin-2-yl)-4-((5-isopropyl-1-methyl-1H-pyrazol-4-yl)ethynyl)pyrimidin-2-amine]	129 nM	0.36 nM	4.86 nM		
CC(C)n1c(C#Cc2nc(N[C@@H]3CCOC[C@H]3O)ncc2Cl)cnc1[C@H](C)O [Example 30, (3 S,4R)-4-((5-chloro-4-((2-((S)-1-hydroxyethyl)-1-isopropyl-1H-imidazol-5-yl)ethynyl)pyrimidin-2-yl)amino)tetrahydro-2H-pyran-3-ol]	125 nM	1.14 nM	11.4 nM		
CC(=O)c1ncc(C#Cc2nc(N[C@@H]3CCOC[C@H]3O)ncc2Cl)n1C(C)C [Example 52, 1-(5-((5-chloro-2-(((3 S,4R)-3-hydroxytetrahydro-2H-pyran-4-yl)amino)pyrimidin-4-yl)ethynyl)-1-isopropyl-1H-imidazol-2-yl)ethan-1-one]	2930 nM	6.22 nM	24.2 nM		
CC(=O)c1ncc(C#Cc2nc(N[C@@H]3CCOC[C@H]3O)ncc2Cl)n1C(C)C [Example 1, 1-(5-((5-chloro-2-(((3S,4R)-3-hydroxytetrahydro-2H-pyran-4-yl)amino)pyrimidin-4-yl)ethynyl)-1-isopropyl-1H-imidazol-2-yl)ethan-1-one]	3630 nM	6.2 nM	24.2 nM		
CCN1CC2(C1)CN(c1ccc(Nc3ncc(F)c(C#Cc4cnn(C)c4C(C)C)n3)nc1)C2 [Example 61, N-(5-(6-ethyl-2,6-diazaspiro[3.3]heptan-2-yl)pyridin-2-yl)-5-fluoro-4-((5-isopropyl-1-methyl-1H-pyrazol-4-yl)ethynyl)pyrimidin-2-amine]	617 nM	0.94 nM	8.46 nM		
CC(C)n1c(C#Cc2nc(N[C@H]3CCOC[C@@H]3O)ncc2Cl)cnc1C(C)(C)O [Example 3, (3R,4S)-4-((5-chloro-4-((2-(2-hydroxypropan-2-yl)-1-isopropyl-1H-imidazol-5-yl)ethynyl)pyrimidin-2-yl)amino)tetrahydro-2H-pyran-3-ol]	467 nM				
CC(C)n1c(C#Cc2nc(N[C@@H]3COC[C@H]3O)ncc2Cl)cnc1C(C)(C)O [Example 53, (3 S,4R)-4-((5-chloro-4-((2-(2-hydroxypropan-2-yl)-1-isopropyl-1H-imidazol-5-yl)ethynyl)pyrimidin-2-yl)amino)tetrahydrofuran-3-ol]	493 nM	60.9 nM	192 nM		
CC(C)NCc1ncc(C#Cc2nc(N[C@@H]3CCOC[C@H]3O)ncc2Cl)n1C(C)C [Example 40, (3 S,4R)-4-((5-chloro-4-((1-isopropyl-2-((isopropylamino)methyl)-1H-imidazol-5-yl)ethynyl)pyrimidin-2-yl)amino)tetrahydro-2H-pyran-3-ol]	1970 nM	30.8 nM	299 nM		
CC(C)n1c(C#Cc2nc(Nc3ccc(C4CCN(C)CC4)cn3)ncc2Cl)cnc1C(C)(C)O [Example 55, 2-(5-((5-chloro-2-((5-(1-methylpiperidin-4-yl)pyridin-2-yl)amino)pyrimidin-4-yl)ethynyl)-1-isopropyl-1H-imidazol-2-yl)propan-2-ol]	2120 nM	0.33 nM	1.9 nM		
CC(C)n1c(C#Cc2nc(N[C@@H]3CCOC[C@H]3O)ncc2Cl)cnc1C(C)(C)O [Example 2, (3S,4R)-4-((5-chloro-4-((2-(2-hydroxypropan-2-yl)-1-isopropyl-1H-imidazol-5-yl)ethynyl)pyrimidin-2-yl)amino)tetrahydro-2H-pyran-3-ol]	1320 nM				
CC(C)c1c(C#Cc2nc(Nc3ccc(C4CCN(C)CC4)cn3)ncc2Cl)cnn1C [Example 57, 5-chloro-4-((5-isopropyl-1-methyl-1H-pyrazol-4-yl)ethynyl)-N-(5-(1-methylpiperidin-4-yl)pyridin-2-yl)pyrimidin-2-amine]	2830 nM	0.68 nM	3.7 nM		
(3S,4R)-4-((5-chloro-4-((1-(1, 1-difluoropropan-2-yl)-2-(2-hydroxypropan-2-yl)-1H-imidazol-5-yl)ethynyl)pyrimidin-2-yl)amino)tetrahydro-2H-pyran-3-ol [Example 133]				260 nM	1140 nM
CC(C)c1nn(C)cc1C#Cc1nc(N[C@@H]2CCOC[C@H]2O)ncc1Cl [Example 54, (3 S,4R)-4-((5-chloro-4-((3-isopropyl-1-methyl-1H-pyrazol-4-yl)ethynyl)pyrimidin-2-yl)amino)tetrahydro-2H-pyran-3-ol]		59 nM	164 nM		
CC(C)n1c(C#Cc2nc(N[C@@H]3CCNC[C@H]3O)ncc2Cl)cnc1C(C)(C)O [Example 60, (3R,4R)-4-((5-chloro-4-((2-(2-hydroxypropan-2-yl)-1-isopropyl-1H-imidazol-5-yl)ethynyl)pyrimidin-2-yl)amino)piperidin-3-ol]		47.6 nM	162 nM		

More lines, now with the values ahead:

IC50 [1]	IC50 [2, 4]	IC50 [3, 5]	IC50 [2, 6]	IC50 [3, 6]	Compound
693 nM	23.8 nM	130 nM			CC(C)n1c(C#Cc2nc(N[C@@H]3CCOC[C@H]3O)ncc2Cl)cnc1CN(C)C [Example 63, (3 S,4R)-4-((5-chloro-4-((2-((dimethylamino)methyl)-1-isopropyl-1H-imidazol-5-yl)ethynyl)pyrimidin-2-yl)amino)tetrahydro-2H-pyran-3-ol]
			15.1 nM	131 nM	CCN1CCN(Cc2ccc(Nc3ncc(F)c(C#Cc4cnn(C)c4C(C)C)n3)nc2)CC1 [Example 70, N-(5-((4-ethylpiperazin-1-yl)methyl)pyridin-2-yl)-5-fluoro-4-((5-isopropyl-1-methyl-1H-pyrazol-4-yl)ethynyl)pyrimidin-2-amine]
			2.9 nM	6.53 nM	CCN1CCC(c2ccc(Nc3ncc(Cl)c(C#Cc4cnc(C(C)(C)O)n4C(C)C)n3)nc2)CC1 [Example 76, 2-(5-((5-chloro-2-((5-(1-ethylpiperidin-4-yl)pyridin-2-yl)amino)pyrimidin-4-yl)ethynyl)-1-isopropyl-1H-imidazol-2-yl)propan-2-ol]
			17.2 nM	179 nM	Cc1ncc(C#Cc2nc(N[C@@H]3CCOC[C@H]3O)ncc2Cl)n1C(C)C [Example 79, (3 S,4R)-4-((5-chloro-4-((1-isopropyl-2-methyl-1H-imidazol-5-yl)ethynyl)pyrimidin-2-yl)amino)tetrahydro-2H-pyran-3-ol]
			17 nM	75.8 nM	CC(C)n1c(C#Cc2nc(N[C@@H]3CCOC[C@H]3O)ncc2Cl)cnc1N1CCOC1=O [Example 126, 3-(5-((5-chloro-2-(((3S,4R)-3-hydroxytetrahydro-2H-pyran-4-yl)amino)pyrimidin-4-yl)ethynyl)-1-isopropyl-1H-imidazol-2-yl)oxazolidin-2-one]
			615 nM	5550 nM	CC(C)n1c(C#Cc2nc(N[C@@H]3CCOC[C@H]3O)ncc2Cl)cnc1C(=O)N1CCC[C@H](O)C1 [Example 117, (5-((5-chloro-2-(((3 S,4R)-3-hydroxytetrahydro-2H-pyran-4-yl)amino)pyrimidin-4-yl)ethynyl)-1-isopropyl-1H-imidazol-2-yl)((S)-3-hydroxypiperidin-1-yl)methanone]
			17 nM	263 nM	CC(C)n1c(C#Cc2nc(N[C@@H]3CCOC[C@H]3O)ncc2Cl)cnc1CN1[C@H](C)COC[C@@H]1C [Example 72, (3S,4R)-4-((5-chloro-4-((2-(((3R,5S)-3,5-dimethylmorpholino)methyl)-1-isopropyl-1H-imidazol-5-yl)ethynyl)pyrimidin-2-yl)amino)tetrahydro-2H-pyran-3-ol]
	10.3 nM	39.3 nM			CC(C)(C)n1cncc1C#Cc1nc(N[C@@H]2CCOC[C@H]2O)ncc1Cl [Example 136, (3S,4R)-4-((4-((1-(tert-butyl)-1H-imidazol-5-yl)ethynyl)-5-chloropyrimidin-2-yl)amino)tetrahydro-2H-pyran-3-ol]
